What was measured:
[1] = test system: CML cells (32Dp210-GFP cells); assay: Chronic myelogenous leukemia model mice, imatinib and compound c (Experimental Example 12); type: in vivo
Protocol: Chronic myelogenous leukemia model mice prepared in the same manner as in Experimental Example 11 were divided into the following 3 groups (each group: n=10), and the groups were administered respective test drugs in accordance with the protocol shown in FIG. 15A.
(§1) Group 1: placebo group (physiological saline was administered via gavage)
(§2) Group 2: imatinib group (imatinib [150 mg/kg/day] was administered via gavage)
Group 3: imatinib+compound c group (imatinib [150 mg/kg/day] and compound c [10 mg/kg/day] were administered via gavage)
8 days (day 8) after the day on which CML cells (32Dp210-GFP cells) were intravenously inoculated (day 0), administration of the test drugs to the groups was started. The placebo group and the imatinib group were administered the respective test drugs once a day from day 8 to day 14 (7 doses in total). The imatinib+compound c group was administered imatinib once a day from day 8 to day 14 (7 doses in total), and also administered compound c once a day from day 8 to day 14 (7 doses in total).

[2] = target: human PAI-1 (Homo sapiens, UniProt P05121); assay: Measurement of PAI-1 inhibitory activity of compound group 1 (t-PA, S-2288 chromogenic substrate); details: read-out: PAI-1 activity %
Protocol: Subsequently, human-derived tissue plasminogen activator (t-PA) (manufactured by American Diagnostica, Inc. (USA); the same applies hereinafter) adjusted to 0.35 pmol/μL was added thereto, and the mixture was further incubated at 37° C. for 15 minutes.

[3] = test system: CML cells (32Dp210-GFP cells); assay: Chronic myelogenous leukemia model mice, imatinib and compound a (Experimental Example 11); type: in vivo, C3H/HeJ mice
Protocol: p210(BCR-ABL) gene was inserted into a MIGR1 vector, and GFP cDNA was further incorporated as a reporter gene downstream of the gene (hereinafter, the vector is referred to as “p210-GFP”). p210-GFP was infected with 32D cells (C3H/HeJ mice cell line), and chronic myelogenous leukemia (hereinafter, referred to as “CML”) cells were prepared. 2.5×10^5 of the thus-obtained CML cells (32Dp210(BCR-ABL)-GFP cells, hereinafter, referred to as “32Dp210-GFP cells”) were intravenously administered into the retro-orbital plexus of C3H/HeJ mice. 7 to 10 days after the transplantation, the abundance ratio of GFP cells in the peripheral blood was analyzed, and mice with more than 3% of abundance ratio were used as chronic myelogenous leukemia model mice in the following experiments.
15 chronic myelogenous leukemia model mice prepared by using the procedure described above were divided into the following 3 groups (each group: n=15), and a test drug was administered to the mice in accordance with the protocol shown in FIG. 15A.
as §1, §2
Group 3: imatinib+compound a group (imatinib [150 mg/kg/day] and compound a [100 mg/kg/day] were administered via gavage)
10 days (day 10) after the day on which CML cells were intravenously inoculated (day 0), administration of test drugs to the groups was started. The placebo group and the imatinib group were administered the respective test drugs once a day from day 10 to day 16 (7 doses in total). The imatinib+compound a group was administered imatinib once a day from day 10 to day 16 (7 doses in total), and also administered compound a once a day from day 10 to day 14 (5 doses in total).
As described above, 32Dp210-GFP includes GFP as a reporter gene, and thus, the CML cells having 32Dp210-GFP inserted (32Dp210-GFP cells) are GFP-positive. Therefore, using FACS (FACS (BD Biosciences: FACSCalibur), the frequency of CML cells (32Dp210-GFP cells) in mononucleic cells of the bone marrow and spleen was measured and compared between the imatinib group and the imatinib+compound a group.

[4] = test system: hematopoietic stem cells; assay: Frequency and absolute number of hematopoietic stem cells after bone-marrow transplantation (Experimental Example 8 (1)); type: in vivo, mice; details: 1 and 3 weeks after bone-marrow transplantation
Protocol: In accordance with the procedure of Experimental Example 7 (1), bone marrow was transplanted, and tPA or compound a was administered in the same manner as in Experimental Example 7. Physiological saline was administered to a control group. 1 and 3 weeks after bone-marrow transplantation, 12 mice of each group were measured for the number of bone-marrow mononucleic cells (BM MNC), the frequency and absolute number of Lin-SLAM cells, and the frequency and absolute number of LSK-CD34 negative cells.

[5] = test system: hematopoietic stem cells; assay: Fibrinolytic pathway activation and bone-marrow regeneration after lethal radiation (9Gy) and bone-marrow transplantation, compound a versus recombinant tPA (Experimental Example 7)
Protocol: Within 4 hours, 1.0×10^6 bone-marrow mononucleic cells (BM MNC) were intravenously inoculated into retro-orbital plexus. Concurrently with transplantation, compound a (dosage 100 mg/kg) or recombinant tPA (dosage 100 mg/kg, Eisai Co., Ltd) were administered as a test compound via oral gavage, and the test compound was orally administered for 5 consecutive days (administered group). As a control test, instead of the test compound, physiological saline (vehicle) used for dissolving compound a was orally administered in the same manner (control group).
Blood was collected 2 and 7 days after bone-marrow transplantation, and the active PAI-1 level (ng/mL), active tissue-type plasminogen activator (active tPA), plasmin level (ng/mL), cKit ligand, and total MMP-9 (Matrix metalloprotein-9) in the plasma were measured.

[6] = test system: hematopoietic stem cells; assay: Cell cycle (Ki-67, BrdU) and apoptosis (Annexin V) of bone-marrow cells 1 week after bone-marrow transplantation (Experimental Example 9); type: in vivo, mice
Protocol: In accordance with Experimental Example 7 (1), bone-marrow transplantation was conducted, and after the transplantation, physiological saline (control group), tPA (tPA-administered group), or compound a (compound a-administered group) was administered.
1 week after bone-marrow transplantation, the bone marrow was collected, and Ki-67 protein, which is a cell division marker, was immunostained with anti-Ki-67-FITC antibody (BD Bioscience) to analyze the cells in the cell-division cycle by FACSCalibur.
Subsequently, the number of Ki-67 positive cells in the cells of LSK fraction was examined to confirm that the proliferation of hematopoietic stem cells is promoted by compound a.
In addition, to more accurately detect the cells that moved to the S phase, 5-bromo-2-deoxyuridine (BrdU)-FITC (BD Pharmingen) was administered to the control group, tPA group, and compound a-administered group 1 week after bone-marrow transplantation, 3 hours before the collection of bone marrow. 6 mice were used for each group.
Because BrdU is a thymine derivative, BrdU, substituting for thymine, is incorporated into genomic DNA or the like during DNA replication. BrdU more specifically reflects the S phase than Ki-67 protein.
1 week after bone-marrow transplantation, bone marrow was collected from the control group, tPA group, and compound a-administered group (6 mice for each group), and Annexin V, which appears specifically in apoptosis, was detected with anti-Annexin V antibody immunostaining.

[7] = test system: hematopoietic stem cells; assay: Bone-marrow transplantation into wild-type mice and tPA-KO-mice (Experimental Example 8 (2)); type: in vivo; details: 3 weeks after bone-marrow transplantation
Protocol: Compound a was administered to wild-type mice and tPA-KO-mice (6 mice for each) that underwent bone-marrow transplantation, and 3 weeks after, the mice were measured for the number of bone-marrow mononucleic cells (BM MNC), the frequency and absolute number of Lin-SLAM cells, and the frequency and absolute number of LSK-CD34 negative cells. Physiological saline was administered to a control group, and the same measurement was conducted.

[8] = imatinib 150 mg/kg/day + compound a 100 mg/kg/day
[9] = 2 and 7 days after transplantation, among control, tPA and compound a groups
[10] = tPA group compared with control group, compound a group compared with tPA group

Chain of human PAI-1 (P05121 24-402): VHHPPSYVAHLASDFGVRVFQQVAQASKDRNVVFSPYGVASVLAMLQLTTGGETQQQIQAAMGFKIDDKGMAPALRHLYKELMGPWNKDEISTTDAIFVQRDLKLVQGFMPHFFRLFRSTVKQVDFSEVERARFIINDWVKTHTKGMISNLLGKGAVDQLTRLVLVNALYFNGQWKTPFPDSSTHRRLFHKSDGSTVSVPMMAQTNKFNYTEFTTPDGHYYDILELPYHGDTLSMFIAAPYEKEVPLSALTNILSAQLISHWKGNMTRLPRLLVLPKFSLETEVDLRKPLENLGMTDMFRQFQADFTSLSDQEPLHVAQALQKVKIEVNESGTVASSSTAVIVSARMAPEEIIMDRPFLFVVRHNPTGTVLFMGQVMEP

## O=C(Nc1ccc(Cl)cc1C(=O)O)c1cccc(-c2ccccc2)c1 [Example 4, 2-[(biphenyl-3-ylcarbonyl)amino]-5-chlorobenzoic acid]
[1]; imatinib 150 mg/kg/day + compound c 10 mg/kg/day via gavage, day 8 to day 14
  survival rate on day 40: 70%
[1]; imatinib 150 mg/kg/day + compound c 10 mg/kg/day, placebo 15.5 days
  median survival period: 40 days
[2]
  activity at 20 µM: 47.7%
  activity at 50 µM: 7.6%

## O=C(COCC(=O)N1CCN(C(c2ccccc2)c2ccccc2)CC1)Nc1ccc(Cl)cc1C(=O)[O-].[Na+] [Example 30 (compound group 2), 2-(2-(2-(4-benzhydrylpiperazin-1-yl)-2-oxoethoxy)acetamido)-5-chlorobenzoic acid sodium salt]
[3]; imatinib 150 mg/kg/day (day 10-16) + compound a 100 mg/kg/day (day 10-14) via gavage
  survival rate on day 50: 60%
[3]; [8]
  frequency of 32Dp210-GFP cells in bone-marrow mononucleic cells: about 1.7%
  frequency of CML cells (32Dp210-GFP cells) in the spleen: about 6.6%
[3]; imatinib 150 mg/kg/day + compound a 100 mg/kg/day via gavage, placebo 14 days
  median survival period: 40 days
[4]
  LSK-CD34 negative cells (frequency and absolute number): markedly increased
  frequency and absolute number of Lin-SLAM cells: markedly increased
[4]; compared with control group
  number of bone-marrow mononucleic cells: significantly increased
[5]; [9]
  level of cKitL in plasma: highest level
  level of plasmin in plasma: highest level
  level of total MMP-9 in plasma: highest level
[5]; 7 days after transplantation, among control, tPA and compound a groups
  level of active tPA in plasma: highest level
[5]; compound a or recombinant tPA 100 mg/kg, 5 consecutive days, 2 and 7 days after bone-marrow transplantation
  expression of active PAI-1 in the plasma: did not exhibit an expression of active PAI-1
[5]; lethal radiation 9Gy, 100 mg/kg, 5 consecutive days, n=15, control group 20%
  survival rate on day 28 from bone-marrow transplantation: 70%
[5]; [10]
  platelet count in the peripheral blood: significantly increased
  white blood cell count in the peripheral blood: significantly increased
[6]; compared with control group
  proportion of cells that were induced apoptosis (Annexin V): decrease
[6]; control group 18.1%
  cells in the S phase (BrdU incorporated into LSK cells): 21.4%
[6]; control group 43.3%
  Ki-67 positive, cells classified into the LSK fraction taken as 100%: 63.9%
[6]; control group 44.2%
  cell count of cells at the S-G2-M phase (Ki-67) in bone-marrow mononucleic cells: 64.2%
[6]; control group 55.8%
  cell count of cells at the G0/G1 phase (Ki-67) in bone-marrow mononucleic cells: 35.8%
[7]; tPA-KO-mice
  bone-marrow mononucleic cells: did not exhibit an increase
  frequency or absolute number of Lin-SLAM cells and of LSK-CD34 negative cells: an increase was also not observed
[7]; wild-type mice
  bone-marrow mononucleic cells: increase

Reference: patent publication US10092537B2, “Use for PAI-1 inhibitor” (RENASCIENCE CO., LTD., priority 2013, dated 2018)
